Seven molecules from publication PMC7174318, “The novel E. coli cell division protein, YtfB, plays a role in eukaryotic cell adhesion” (Scientific Reports, 2020) can be followed below.

SMILES strings stand for the structures.

For one test, the target named is T1, YtfB (his6-YtfB, C-terminal domain) (Escherichia coli, UniProt P39310).
T1 construct: extracellular C-terminal region, residues 52-212 incl; LysM-like (OapA) domain; His6 tag kept; pETMCSIII-ytfB, expressed in E. coli BL21 AI
T1 sequence (P39310 52-212): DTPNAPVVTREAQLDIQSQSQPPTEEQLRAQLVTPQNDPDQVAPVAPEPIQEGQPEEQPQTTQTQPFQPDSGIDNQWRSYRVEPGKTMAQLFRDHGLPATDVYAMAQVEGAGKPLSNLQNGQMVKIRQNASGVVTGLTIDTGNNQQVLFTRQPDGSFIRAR
Kind of test: surface plasmon resonance, steady state affinity, YtfB immobilised by amine coupling on CM5. It counts as binding. Particulars: PBS running buffer.
`CC(=O)N[C@H]1[C@H](O[C@H]2[C@H](O)[C@@H](NC(C)=O)C(O)O[C@@H]2CO)O[C@H](CO)[C@@H](O[C@@H]2O[C@H](CO)[C@@H](O)[C@H](O)[C@H]2NC(C)=O)[C@@H]1O` (stereo partly shown) [4B, GlcNAcβ1-4GlcNAcβ1-4GlcNAc]: the affinity, expressed as Kd, was 3300 ± 2130 nM.

As for `CC(=O)N[C@H]1[C@H](O[C@H]2[C@H](O)[C@@H](NC(C)=O)[C@H](O[C@H]3[C@H](O)[C@@H](NC(C)=O)C(O)O[C@@H]3CO)O[C@@H]2CO)O[C@H](CO)[C@@H](O[C@@H]2O[C@H](CO)[C@@H](O[C@@H]3O[C@H](CO)[C@@H](O[C@@H]4O[C@H](CO)[C@@H](O)[C@H](O)[C@H]4NC(C)=O)[C@H](O)[C@H]3NC(C)=O)[C@H](O)[C@H]2NC(C)=O)[C@@H]1O` (stereo partly shown) [4D, hexaacetylchitohexaose], the Kd (as a rule, the free concentration of one partner at which half of the binding sites on the other are occupied at equilibrium, for simple one-to-one binding) worked out at 24.8 ± 5.3 nM.

For the molecule `OC[C@H]1O[C@H](O[C@@H]2C(O)O[C@H](CO)[C@@H](O)[C@@H]2O)[C@@H](O)[C@@H](O)[C@@H]1O` (stereo partly drawn) [5C, α1–2mannobiose], the Kd was 43.3 nM. As for `OC[C@H]1O[C@H](O[C@H]2[C@H](O)[C@@H](CO)OC(O)[C@H]2O)[C@@H](O)[C@@H](O)[C@@H]1O` (stereo partly drawn) [5D, α1–3mannobiose], the Kd was found to be 345 nM. For `OC[C@H]1O[C@H](O[C@H]2[C@H](O)[C@H](O)C(O)O[C@@H]2CO)[C@@H](O)[C@@H](O)[C@@H]1O` (stereo partly drawn) [5E, α1–4mannobiose], binding was characterised by a dissociation constant (Kd) of 31.2 nM. `CC(=O)N[C@H]1[C@H](O[C@H]2[C@H](O)[C@@H](NC(C)=O)C(O)O[C@@H]2CO)O[C@H](CO)[C@@H](O[C@@H]2O[C@H](CO)[C@@H](O[C@@H]3O[C@H](CO)[C@@H](O)[C@H](O)[C@H]3NC(C)=O)[C@H](O)[C@H]2NC(C)=O)[C@@H]1O` (stereo partly shown) [tetraose (N’acetylglucosamine)] came in with a Kd of 463 ± 71 nM.

Still in this test, the particulars now being: PBS running buffer; read-out: KD.
In the case of `OC[C@H]1O[C@H](OC[C@H]2OC(O)[C@@H](O)[C@@H](O)[C@@H]2O)[C@@H](O)[C@@H](O)[C@@H]1O` (stereo partly drawn) [5F, α1–6 mannobiose], the Kd was 112 nM.
